# Assay results taken from patent publication EP4553077A1 (Kinoteck Therapeutics Co., Ltd, priority 2022, dated 2024).
# Biological target: Ba/F3-TEL-FGFR2 (Homo sapiens, UniProt P21802+P41212)
# Experiment: Cell viability (proliferation inhibition) of Ba/F3 cells, CellTiter Glo
# Conditions: read-out: Ba/F3 cell FGFR2 (IC50 nM), 72 h
# Sequence of Ba/F3-TEL-FGFR2 (P21802 481-770 limits assumed, one chain of several): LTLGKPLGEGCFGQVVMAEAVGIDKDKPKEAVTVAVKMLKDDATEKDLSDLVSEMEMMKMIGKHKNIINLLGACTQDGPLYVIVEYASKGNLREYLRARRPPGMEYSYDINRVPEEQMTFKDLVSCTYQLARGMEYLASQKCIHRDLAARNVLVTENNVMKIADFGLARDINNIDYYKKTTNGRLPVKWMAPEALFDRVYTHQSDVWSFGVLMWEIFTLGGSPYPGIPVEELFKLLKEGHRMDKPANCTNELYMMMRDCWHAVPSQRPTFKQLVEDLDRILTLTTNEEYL
row,Structure (SMILES),IC50 [nM]
1,"C=C(C)C(=O)Nc1ccc(-c2c(-c3ccc(N=S(C)(=O)C4CCC4)cc3)c3c(N)ncnc3n2C)c(F)c1 (stereo not drawn) [Compound 50, N-(4-(4-amino-5-(4-((cyclobutyl (methyl) (oxo) - λ^6-sulfanylidene)amino)phenyl) -7-methyl-7H-pyrrole [2,3-d]pyrimidin-6-yl) -3-fluorophenyl) methacrylamide]",7.6
2,"C=C(C)C(=O)Nc1ccc(-c2c(-c3ccc(N=S(=O)(N4CCC4)C(F)(F)F)cc3)c3c(N)ncnc3n2C)cc1 (stereo not drawn) [Compound 51, N-(4-(4-amino-5-(4-((azetidin-1-yl(oxo)(trifluoromethyl)-λ^6-sulfanylidene)amino)phenyl) -7-methyl-7H-pyrrolo [2,3-d]pyrimidin-6-yl)phenyl) methacrylamide]",19.1
3,"C=C(C)C(=O)Nc1ccc(-c2c(-c3ccc(N=S(=O)(N(C)C)C(F)(F)F)cc3F)c3c(N)ncnc3n2C)cc1 (stereo not drawn) [Compound 52, N-(4-(4-amino-5-(4-(((dimethylamino) (oxo) (trifluoromethyl) -λ^6-sulfanylidene)amino) -2-fluorophenyl) -7-methyl-7H-pyrrolo [2,3-d]pyrimidin-6-yl)phenyl) methacrylamide]",2.3
4,"C=C(C)C(=O)Nc1ccc(-c2c(-c3ccc(N=S(=O)(N(C)CC)C(F)(F)F)c(F)c3)c3c(N)ncnc3n2C)cc1 (stereo not drawn) [Compound 53, N-(4-(4-amino-5-(4-(((ethyl(methyl)amino)(oxo)(trifluoromethyl)-λ^6-sulfanylidene)amino)-3-fluorophenyl)-7-methyl-7H-pyrrolo[2,3-d]pyrimidin-6-yl)phenyl) methacrylamide]",10.2
5,"C=C(C)C(=O)Nc1ccc(-c2c(-c3ccc(N=S(=O)(N(C)CC)C(F)(F)F)cc3)c3c(N)ncnc3n2C)cc1 (stereo not drawn) [Compound 54, N-(4-(4-amino-5-(4-(((ethyl (methyl)amino) (oxo) (trifluoromethyl) -λ^6-sulfanylidene)amino)phenyl) -7-methyl-7H-pyrrolo [2,3-d]pyrimidin-6-yl)phenyl) methacrylamide]",2.8
6,"C=C(C)C(=O)Nc1ccc(-c2c(-c3ccc(N=S(=O)(N4CCC4)C(F)(F)F)c(F)c3)c3c(N)ncnc3n2C)cc1 (stereo not drawn) [Compound 55, N-(4-(4-amino-5-(4-((azetidine 1-yl (oxo) (trifluoromethyl) -λ^6-sulfanylidene)amino)-3-fluorophenyl)-7-methyl-7H-pyrrolo[2,3-d]pyrimidin-6-yl)phenyl) methacrylamide]",3
7,"C=C(C)C(=O)Nc1ccc(-c2c(-c3ccc(N=S4(=O)CC(C)(C)C4)c(F)c3)c3c(N)ncnc3n2C)cc1 [Compound 57, N-(4-(4-amino-5-(4-((3,3-dimethyl-1-oxo-1λ^6-thiocyclobutyl-1-ylidene)amino) -3-fluorophenyl) -7-methyl-7H-pyrrolo [2,3-d]pyrimidin-6-yl)phenyl) methacrylamide]",17.4
8,"CC#CC(=O)Nc1ccc(-c2c(-c3ccc(N=S4(=O)CCCC4)cc3)c3c(N)ncnc3n2C)cc1 [Compound 60, N-(4-(4-amino-7-methyl-5-(4-((1-oxotetrahydro-1 λ^6-thiophene-1-ylidene)amino)phenyl) -7H-pyrrolo [2,3-d]pyrimidin-6-yl)phenyl) but-2-ynamide]",13.1
9,"C=C(C)C(=O)Nc1ccc(-c2c(-c3ccc(N=S4(=O)CCCC4)cc3F)c3c(N)ncnc3n2C)c(F)c1 [Compound 61, N-(4-(4-amino-5-(2-fluoro-4-((1-oxotetrahydro-1λ^6-thiophene-1-ylidene)amino)phenyl)-7-methyl-7H-pyrrolo[2,3-d]pyrimidin-6-yl)-3-fluorophenyl) methacrylamide]",150
10,"C=C(C)C(=O)Nc1ccc(-c2c(C3=CCC(=S(=O)(CC)C(C)C)C=C3)c3c(N)ncnc3n2C)cc1 (stereo not drawn) [Compound 62, N-(4-(4-amino-5-(4-(ethyl(isopropyl)(oxo)-1λ^6-sulfanylidene)phenyl) -7-methyl-7H-pyrrolo[2,3-d]pyrimidin-6-yl)-phenyl)methacrylamide]",9.2
11,"C=C(C)C(=O)Nc1ccc(-c2c(-c3ccc(N=S4(=O)CCCCC4)cc3)c3c(N)ncc(C#N)c3n2C)c(F)c1 [Compound 64, N-(4-(4-amino-7-cyano-1-methyl-3-(4-((1-oxotetrahydro-2H-1λ^6-thiopyran-1-ylidene)amino)phenyl) -1H pyrrolo [3,2-c]pyridine-2-yl) -3-fluorophenyl) methacrylamide]",658
12,"C=C(F)C(=O)N1CC=C(c2c(-c3ccc(N=S4(=O)CCCCC4)cc3)c3c(N)ncnc3n2C)CC1 [Compound 65, 1-(4-(4-amino-7-methyl-5-(4-((1-oxotetrahydro-2H-1 λ^6-thiopyran-1-ylidene)amino)phenyl)-7H-pyrrolo[2,3-d]pyrimidin-6-yl)-3,6-dihydropyridine-1(2H)-yl) -2-fluoropropan-2-enyl-1-one]",121
13,CC#CC(=O)N1CC=C(c2c(-c3ccc(N=S4(=O)CCCCC4)cc3)c3c(N)ncnc3n2C)CC1 [Compound 66],27.8
14,"CN(C)C/C=C/C(=O)N1CC=C(c2c(-c3ccc(N=S4(=O)CCCCC4)cc3)c3c(N)ncnc3n2C)CC1 [Compound 67, (E)-1-(4-(4-amino-7-methyl-5-(4-((1-oxotetrahydro-2H-1λ^6-thiopyran-1-ylidene)amino)phenyl) -7H-pyrrolo [2,3-d]pyrimidin-6-yl) -3,6-dihydropyridine-1 (2H)-yl) -4-(dimethylamino) but-2-enyl-1-one]",105
15,"C=C(C)C(=O)Nc1ccc(-c2c(-c3ccc(N=S4(=O)CCCCC4)c(F)c3)c3c(N)ncnc3n2C)cc1 [Compound 69, N-(4-(4-amino-5-(3-fluoro-4-((1-oxotetrahydro-2H-1λ^6-thiopyran-1-ylidene)amino)phenyl) -7-methyl-7H-pyrrolo [2,3-d]pyrimidin-6-yl)phenyl) methacrylamide]",11.4
16,"C=C(C)C(=O)Nc1ccc(-c2c(-c3ccc(N=S(=O)(NCC)C(F)(F)F)c(F)c3)c3c(N)ncnc3n2C)cc1 (stereo not drawn) [Compound 71, N-(4-(4-amino-5-(4-(((ethylamino)(oxo)(trifluoromethyl)-1 λ^6-sulfaneylidene)amino)-3-fluorophenyl)-7-methyl-7H-pyrrolo[2,3-d]pyrimidin-6-yl)phenyl) methacrylamide]",2.5
17,C=C(C)C(=O)Nc1ccc(-c2c(-c3ccc(N=S4(=O)CC5(CC5)C4)cc3)c3c(N)ncnc3n2C)c(F)c1 [Compound 72],2.2
18,C=C(C)C(=O)Nc1ccc(-c2c(-c3ccc(N=S(=O)(CC)CC)cc3)c3c(N)ncnc3n2C)c(C(F)F)c1 [Compound 73],11.1
19,C=C(C)C(=O)Nc1ccc(-c2c(-c3cc(F)c(N=S(=O)(CC)CC)cc3F)c3c(N)ncnc3n2C)c(F)c1 [Compound 76],6.1
20,"C=C(C)C(=O)Nc1ccc(-c2c(-c3ccc(N=S4(=O)CCCC4)cc3)c3c(N)ncnc3n2CCN(C)C)c(F)c1 [Compound 78, N-(4-(4-amino-7-(2-(dimethylamino)ethyl) -5-(4-((1-hydroperoxide-1λ^6-thiophene-1-ylidene)amino)phenyl) -7H-pyrrolo [2,3-d]pyrimidin-6-yl) -3-fluorophenyl) methacrylamide]",585
21,"C=C(C)C(=O)Nc1ccc(-c2c(-c3ccc(N=S4(=O)CCCC4)cc3)c3c(N)ncnc3n2CC(C)(C)O)c(F)c1 [Compound 79, N-(4-(4-amino-7-(2-hydroxy-2-methylpropyl)-5-(4-((1-hydroperoxid-1λ^6-thiophene-1-ylidene)amino)phenyl) -7H-pyrrolo [2,3-d]pyrimidin-6-yl) -3-fluorophenyl) methacrylamide]",61.1
22,"C=C(C)C(=O)Nc1ccc(-c2c(-c3ccc(N=S4(=O)CCCC4)c(OC)c3)c3c(N)ncnc3n2C)c(F)c1 [Compound 80, N-(4-(4-amino-5-(3-methoxy-4-((1-hydroperoxid-1λ^6-thiophene-1-ylidene)amino)phenyl)-7-methyl-7H-pyrrolo[2,3-d]pyrimidin-6-yl)-3-fluorophenyl) methacrylamide]",46
23,"C=C(C)C(=O)Nc1ccc(-c2c(-c3ccc(N=S4(=O)CCCC4)c(OC)c3)c3c(N)ncnc3n2C)c(Cl)c1 [Compound 81, N-(4-(4-amino-5-(3-methoxy-4-((1-hydroperoxid-1 λ^6-thiophene-1-ylidene)amino)phenyl) -7-methyl-7H-pyrrolo [2,3-d]pyrimidin-6-yl) -3-chlorophenyl) methacrylamide]",18.1
24,C=C(C)C(=O)Nc1ccc(-c2c(-c3ccc(N=S(=O)(CC)CC)cc3F)c3c(N)ncnc3n2C)c(F)c1 [Compound 85],907
25,C=C(C)C(=O)Nc1ccc(-c2c(-c3ccc(N=S(=O)(CC)CC)cc3)c3c(N)ncnc3n2CCOC)c(F)c1 [Compound 86],67.4
26,"[2H]C([2H])([2H])n1c(-c2cc(C)c(NC(=O)C(=C)C)cc2F)c(-c2ccc(N=S3(=O)CCCC3)c(F)c2)c2c(N)ncnc21 [Compound 91, N-(4-(4-amino-5-(3-fluoro-4-((1-tetrahydro-1λ^6-thiophene-1-ylidene)amino)phenyl) -7-(methyl-d3) -7H-pyrrolo [2,3-d]pyrimidin-6-yl) -5-fluoro-2-methylphenyl) methacrylamide]",23.9
27,C=C(CN(C)C)C(=O)Nc1ccc(-c2c(-c3ccc(N=S4(=O)CCCC4)c(F)c3)c3c(N)ncnc3n2C)cc1 [Compound 92],0.8
28,"C=C(C)C(=O)Nc1ccc(-c2c(-c3ccc(N=S(=O)(C4CC4)C4CC4)cc3)c3c(N)ncnc3n2C)cc1 [Compound 93, N-(4-(4-amino-5-(4-((dicyclopropyl (oxo)-λ^6-sulfaneylidene)amino)phenyl)-7-methyl-7H-pyrrolo [2,3-d]pyrimidin-6-yl)phenyl) methacrylamide]",31.7
29,"[2H]C([2H])([2H])n1c(-c2ccc(NC(=O)C(=C)C)cc2F)c(-c2ccc(N=S(C)(=O)c3ccccc3)c(F)c2)c2c(N)ncnc21 (stereo not drawn) [Compound 96, N-(4-(4-amino-5-(3-fluoro-4-((methyl (oxo) (phenyl) - λ^6-sulfaneylidene)amino)phenyl) -7-(methyl-d3) -7H-pyrrolo [2,3-d]pyrimidin-6-yl) -3-fluorophenyl) methacrylamide]",29.8
30,C=C(C)C(=O)Nc1ccc(-c2c(-c3ccc(N=S4(=O)CCC4)c(F)c3)c3c(N)ncnc3n2C)c(C)c1 [Compound 99],2.7
